Results: patent US20240041042A1, “1-(PYRIDYL)-5-AZINYLPYRAZOLE DERIVATIVES, AND THEIR USE FOR CONTROL OF UNDESIRED PLANT GROWTH” (Bayer Aktiengesellschaft, priority 2020, published 2024)
Like-named read-outs stand apart in the source and are kept apart here.

How the values were obtained:
Format in all cases: in vivo
[1] = test system: Amaranthus retroflexus (AMARE); assay: Pre-emergence herbicidal action against AMARE; settings: visual scoring after about 3 weeks vs untreated controls
Summary of the method: (§1)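 Seeds sown in pots and covered with soil; WP or EC formulations sprayed onto the soil surface at 600 l/ha water with 0.5% additive, at 320 g/ha or lower. Greenhouse growth for about 3 weeks, then visual scoring as % effect against untreated controls (100% = plants dead).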

[2] = test system: Zea mays (ZEAMX); settings: 20 g/ha, ZEAMX, effect in comparison to untreated controls
Summary of the method: (§2)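 One-leaf-stage crops (2–3 wk post-sowing, sandy loam, greenhouse) sprayed on green parts; 0.5% additive, 600 l/ha water. Rated by eye ~3 wk later, % vs untreated; suffixes a/b/c mark different dosages.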

[3] = test system: Oryza sativa (ORYSA); settings: crop plant compatibility
Summary of the method: as §2

[4] = test system: Viola tricolor (VIOTR); assay: Post-emergence herbicidal action against VIOTR; settings: 320 g/ha
Summary of the method: (§3)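 Values are percent visual activity (0% like control, 100% plants dead) after about 3 weeks in the greenhouse. Treatment: post-emergence spray at one-leaf stage, 600 l/ha spray volume, 0.5% additive, doses 320 g/ha or lower.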

[5] = test system: Alopecurus myosuroides (ALOMY); assay: Pre-emergence herbicidal action against ALOMY; settings: scored visually after about 3 weeks, 100% = plants have died
Summary of the method: as §1

[6] = test system: Setaria viridis (SETVI); assay: Pre-emergence herbicidal action against SETVI
Summary of the method: as §1

[7] = test system: Matricaria inodora (MATIN); assay: Pre-emergence herbicidal action against MATIN
Summary of the method: as §1

[8] = test system: Verconica persica (VERPE); assay: Post-emergence herbicidal action against VERPE; settings: 320 g/ha, VERPE
Summary of the method: as §3

[9] = test system: Alopecurus myosuroides (ALOMY); assay: Post-emergence herbicidal action against ALOMY; settings: visual rating about 3 weeks after treatment vs untreated controls (100% = plants have died, 0% = like control plants)
Summary of the method: as §3

[10] = test system: Lolium rigidum (LOLRI); assay: Post-emergence herbicidal action against LOLRI; settings: dosage 320 g/ha
Summary of the method: as §3

[11] = test system: Polygonum convolvulus (POLCO); assay: Pre-emergence herbicidal action against POLCO
Summary of the method: as §1

[12] = test system: Pharbitis purpurea (PHBPU); assay: Post-emergence herbicidal action against PHBPU; settings: dosage 320 g/ha
Summary of the method: as §3

[13] = test system: Triticum aestivum (TRZAS); settings: crop plant compatibility; for Pre-emergence action against TRZAS: 20 g/ha, effect vs untreated controls
Summary of the method: (§4)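 Crop injury rated visually in percent against untreated plants roughly 3 weeks after treatment (0% no effect, 100% plants dead). Compounds, as WP or EC with 0.5% additive in 600 l/ha water, were applied to the covering soil right after sowing; greenhouse growth. Suffixes a, b, c denote different dosages.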

[14] = test system: Zea mays (ZEAMX); settings: crop plant compatibility; for Pre-emergence action against ZEAMX: 20 g/ha, effect vs untreated controls
Summary of the method: as §4

[15] = test system: Brassica napus (BRSNW); settings: crop plant compatibility, in comparison to untreated controls
Summary of the method: as §4

[16] = test system: Oryza sativa (ORYSA); settings: crop plant compatibility; for Pre-emergence action against ORYSA: 20 g/ha, effect vs untreated controls; for Pre-emergence action against ORYSA in %: 80 g/ha, in comparison to untreated controls
Summary of the method: as §4

[17] = test system: Glycine max (GLXMA); settings: crop plant compatibility; for Pre-emergence action against GLXMA: 20 g/ha, effect vs untreated controls
Summary of the method: as §4

[18] = test system: Avena fatua (AVEFA); assay: Post-emergence herbicidal action against AVEFA; settings: visual rating about 3 weeks after treatment
Summary of the method: as §3

[19] = test system: Avena fatua (AVEFA); assay: Pre-emergence herbicidal action against AVEFA; settings: 320 g/ha, visual scoring after about 3 weeks vs untreated controls
Summary of the method: as §1

[20] = test system: Setaria viridis (SETVI); assay: Post-emergence herbicidal action against SETVI
Summary of the method: as §3

[21] = test system: Viola tricolor (VIOTR); assay: Pre-emergence herbicidal action against VIOTR; settings: 320 g/ha, Viola tricolor
Summary of the method: as §1

[22] = test system: Echinochloa crus-galli (ECHCG); assay: Post-emergence herbicidal action against ECHCG; settings: dosage 320 g/ha
Summary of the method: as §3

[23] = test system: Verconica persica (VERPE); assay: Pre-emergence herbicidal action against VERPE; settings: dosage 320 g/ha
Summary of the method: as §1

[24] = test system: Digitaria sanguinalis (DIGSA); assay: Pre-emergence herbicidal action against DIGSA
Summary of the method: as §1

[25] = test system: Digitaria sanguinalis (DIGSA); assay: Post-emergence herbicidal action against DIGSA; settings: visual rating about 3 weeks after treatment
Summary of the method: as §3

[26] = test system: Lolium rigidum (LOLRI); assay: Pre-emergence herbicidal action against LOLRI; settings: dosage 320 g/ha
Summary of the method: as §1

[27] = test system: Echinochloa crus-galli (ECHCG); assay: Pre-emergence herbicidal action against ECHCG; settings: dosage 320 g/ha
Summary of the method: as §1

[28] = test system: Abutilon theophrasti (ABUTH); assay: Pre-emergence herbicidal action against ABUTH; settings: Dosage column 320 g/ha (title prints 3200 g/ha); scored visually after about 3 weeks; 100% = plants have died
Summary of the method: as §1

[29] = 20 g/ha, effect vs untreated controls
[30] = 80 g/ha, effect in comparison to untreated controls
[31] = pre-emergence, 80 g/ha, in comparison to untreated controls
[32] = 80 g/ha, visual scoring after about 3 weeks vs untreated controls

SMILES: COC(=O)[C@@H](C)Oc1nn(-c2ccc(F)cn2)c(-c2ccc(F)nc2)c1Br [Example I-11]
- Pre-emergence action against AMARE in % ([1]; 320 g/ha): 100%
- Post-emergence action against ZEAMX in % (crop plant compatibility) [2]: 10%
- Post-emergence action against ORYSA in % [3, 29]: 0%
- Post-emergence action against ORYSA in % [3, 30]: 0%
- Post-emergence action against ORYSA in % ([3]; 320 g/ha, effect in comparison to untreated controls): 10%
- Post-emergence action against VIOTR in % [4]: 80%
- Pre-emergence action against ALOMY ([5]; 80 g/ha): 90%
- Pre-emergence action against ALOMY ([5]; 320 g/ha): 100%
- Pre-emergence action against SETVI in % ([6]; dosage 80 g/ha): 90%
- Pre-emergence action against SETVI in % ([6]; dosage 320 g/ha): 100%
- Pre-emergence action against MATIN in % ([7]; dosage 320 g/ha): 90%
- Post-emergence action against VERPE in % [8]: 80%
- Post-emergence action against ALOMY in % ([9]; 80 g/ha): 90%
- Post-emergence action against ALOMY in % ([9]; 320 g/ha): 90%
- Post-emergence action against LOLRI in % [10]: 80%
- Pre-emergence action against POLCO in % ([11]; dosage 80 g/ha): 90%
- Pre-emergence action against POLCO in % ([11]; dosage 320 g/ha): 90%
- Post-emergence action against PHBPU in % [12]: 90%
- Pre-emergence action against TRZAS [13]: 0%
- Pre-emergence action against ZEAMX [14]: 10%
- Pre-emergence action against ZEAMX in % [14, 31]: 10%
- Pre-emergence action against BRSNW in % ([15]; 20 g/ha): 10%
- Pre-emergence action against BRSNW in % ([15]; 80 g/ha): 20%
- Pre-emergence action against ORYSA [16]: 0%
- Pre-emergence action against ORYSA in % [16]: 20%
- Pre-emergence action against GLXMA [17]: 10%
- Post-emergence action against AVEFA in % ([18]; 80 g/ha): 80%
- Post-emergence action against AVEFA in % ([18]; 320 g/ha): 90%
- Pre-emergence action against AVEFA in % [19]: 90%
- Post-emergence action against SETVI in % ([20]; dosage 80 g/ha): 80%
- Post-emergence action against SETVI in % ([20]; dosage 320 g/ha): 90%
- Pre-emergence action against VIOTR in % [21]: 100%
- Post-emergence action against ECHCG in % [22]: 80%
- Pre-emergence action against VERPE in % [23]: 90%
- Pre-emergence action against DIGSA in % [24, 32]: 100%
- Pre-emergence action against DIGSA in % ([24]; dosage 320 g/ha): 100%
- Post-emergence action against DIGSA in % ([25]; 80 g/ha): 90%
- Post-emergence action against DIGSA in % ([25]; 320 g/ha): 90%
- Pre-emergence action against LOLRI in % [26]: 100%
- Pre-emergence action against ECHCG in % [27]: 80%

SMILES: C[C@@H](Oc1nn(-c2ccc(F)cn2)c(-c2cncc(F)c2)c1Br)C(=O)O [Example I-13]
- Pre-emergence action against AMARE in % ([1]; 80 g/ha): 90%
- Pre-emergence action against AMARE in % ([1]; 320 g/ha): 100%
- Post-emergence action against ZEAMX in % (crop plant compatibility) [2]: 0%
- Post-emergence action against ORYSA in % [3, 29]: 0%
- Post-emergence action against ORYSA in % [3, 30]: 10%
- Post-emergence action against VIOTR in % [4]: 80%
- Pre-emergence action against ALOMY ([5]; 80 g/ha): 90%
- Pre-emergence action against ALOMY ([5]; 320 g/ha): 100%
- Pre-emergence action against SETVI in % ([6]; dosage 320 g/ha): 90%
- Pre-emergence action against MATIN in % ([7]; dosage 80 g/ha): 80%
- Pre-emergence action against MATIN in % ([7]; dosage 320 g/ha): 80%
- Post-emergence action against VERPE in % [8]: 80%
- Post-emergence action against ALOMY in % ([9]; 80 g/ha): 90%
- Post-emergence action against ALOMY in % ([9]; 320 g/ha): 90%
- Post-emergence action against LOLRI in % [10]: 90%
- Pre-emergence action against POLCO in % ([11]; dosage 320 g/ha): 100%
- Pre-emergence action against ABUTH [28]: 90%
- Pre-emergence action against TRZAS [13]: 10%
- Pre-emergence action against TRZAS in % [13, 31]: 20%
- Pre-emergence action against ZEAMX [14]: 10%
- Pre-emergence action against BRSNW in % ([15]; 20 g/ha): 10%
- Pre-emergence action against BRSNW in % ([15]; 80 g/ha): 10%
- Pre-emergence action against BRSNW in % ([15]; 320 g/ha): 20%
- Pre-emergence action against ORYSA [16]: 0%
- Pre-emergence action against ORYSA in % [16]: 10%
- Pre-emergence action against GLXMA [17]: 10%
- Pre-emergence action against GLXMA in % [17, 31]: 10%
- Post-emergence action against AVEFA in % ([18]; 80 g/ha): 80%
- Post-emergence action against AVEFA in % ([18]; 320 g/ha): 90%
- Pre-emergence action against AVEFA in % [19]: 90%
- Post-emergence action against SETVI in % ([20]; dosage 80 g/ha): 80%
- Post-emergence action against SETVI in % ([20]; dosage 320 g/ha): 90%
- Pre-emergence action against VIOTR in % [21]: 90%
- Pre-emergence action against VERPE in % [23]: 80%
- Pre-emergence action against DIGSA in % [24, 32]: 100%
- Pre-emergence action against DIGSA in % ([24]; dosage 320 g/ha): 100%
- Post-emergence action against DIGSA in % ([25]; 80 g/ha): 90%
- Post-emergence action against DIGSA in % ([25]; 320 g/ha): 90%
- Pre-emergence action against LOLRI in % [26]: 90%
- Pre-emergence action against ECHCG in % [27]: 90%
